# According to publication PMC9671962 (Communications Biology, 2022):
# Like-named read-outs stand apart in the source and are kept apart here.
# Assays:
# PARP1 = settings: cited from earlier work; for maximum standardized uptake values (SUVmax): clinical PET
# [1] = set-up: method as in PMID 27841728, PMID 28222073; settings: cited from earlier work
# [2] = set-up: method as in PMID 27841728, PMID 27261505; settings: cited from earlier work
# [3] = set-up: method as in PMID 28408529; settings: cited from earlier work
# neuroblastoma = settings: cited from earlier work
# [4] = in vitro; ref previously shown by the authors, no reference given; cited from earlier work
# NB-EBC1x tumor = experiment: Biodistribution, autoradiography and tumor dosimetry in NB-EBC1x tumor-bearing mice; assay type: in vivo, female SCID CB17 mice; settings: 1 hour
# Method: At various time points mice were euthanized and tissues were harvested, weighed, and assayed for radioactivity by gamma counter. Decay corrected data presented as percent injected dose per gram of tissue (%ID/g). Human dosimetry was calculated using OLINDA/EXM software by fitting time activity curves for biodistribution data. Tissue autoradiography was performed by freezing excised tumors at 1 h postinjection of each respective treatment. One tumor was collected for each treatment group. Tumors were cryosectioned (Leica Cryotome) at a thickness of 20 µm. Each section was collected with a 200 µm gap and a total of three sections were collected for each tumor. Sections were then exposed to a phosphorfilm for 60 h and films were read on a Cyclone Plus phosphorimager (Perkin Elmer). Experimental conditions have been included in the Supplementary Methods.
# Animal studies were performed in female mice due to the lack of sex-related differences for [^211At]PTT tolerability from initial dose response studies performed in female and male mice. Female mice were chosen due to their underlying behavior towards other study subjects that reduced nonstudy-related causes for decreased wellness. Pre-clinical efficacy studies were performed through “single mouse testing” to more closely recapitulate a clinical trial. […] Number size for treatment groups was determined by model tumor growth reproducibility, which was previously shown to have less than 5% normal variation with at least two animals. Statistical tests for tumor response and event-free survival (EFS) were performed as a grouped analysis that included all tumor models treated at each respective dose level (n = 2 per model per dose level). Statistical differences between treatment groups for tumor response was performed by paired-model T-test that compared reduction in tumor volume for the 36 MBq/kg dose level vs. 24 MBq/kg or 12 MBq/kg. Event free survival was measured by area over the curve method to quantify time to event, which was set as tumor growth exceeding 2 cm[3],[19]. Differences in EFS were tested across all treated models for each respective dose level, and against untreated controls, by paired-model ANOVA analysis. Associations of drug target expression and response were performed by linear regression analysis of EFS and PARP1 mRNA expression. Genetic signatures were visually presented as a function of EFS and no statistical tests were applied. Blood and marrow toxicity studies were performed with n = 5 sample sizes and powered to detect >20% differences between untreated controls and treated animals. Results were tested for significance by one-way ANOVA comparison from untreated controls. Marrow colony formation assays were performed in replicates of 2 for each mouse subject, dependent on marrow isolation, and all replicates are included in final analyses. Statistical analysis was performed by ordinary one-way ANOVA comparison between the mean of control and test groups. Biodistribution studies were performed with n = 3 mice per time-point. Human dosimetry was calculated using OLINDA/EXM v1.1 software by fitting time activity curves for biodistribution data in a healthy mouse model. Tumor dosimetry was calculated by OLINDA/EXM v1.1 by fitting time activity curves for NB-EBC1 tumors from biodistribution data. All statistical analyses were performed in GraphPad Prism version 9.3.1 unless indicated otherwise.
# [5] = mice; cited from earlier work
smiles,measurement,setting,value
"O=C1NCCn2c(-c3ccc(OCC[18F])cc3)nc3cccc1c32 [[^18F]FTT, fluorine-18 Fluorthanatrace]",estimated kidney dose,PARP1; adults,0.018–0.027 mGy/MBq
same,maximum standardized uptake values (SUVmax),PARP1; breast cancer,4–7
same,time of rapid tumor uptake kinetics post injection,"PARP1; ovarian cancer patients, minimal wash-out",60 to 180 min
same,maximum standardized uptake values (SUVmax),PARP1; ovarian cancer,2–9
same,"hepatobiliary clearance, share of blood clearance",[1],> 90%
same,thyroid uptake,[2],around 4 % ID/g
CNCc1ccc(-c2[nH]c3cc(F)cc4c3c2CCNC4=O)cc1 [rucaparib],"hepatobiliary clearance, share of blood clearance",[1],> 90%
O=C([O-])CC[C@H](NC(=O)N[C@@H](CCCCNC(=O)[C@H](Cc1ccc2ccccc2c1)NC(=O)C1CCC(CNC(=O)CN2CCN(CC(=O)[O-])CCN(CC(=O)[O-])CCN(CC(=O)[O-])CC2)CC1)C(=O)[O-])C(=O)[O-].[225Ac].[H+].[H+].[H+] (stereo partly shown) [[^225Ac]PSMA-617],kidney dose,[3],740 mSv/MBq
"N=C(N)NCc1cccc([131I])c1 [[^131I]MIBG, iodine-131-metaiodobenzylguanidine]",overall survival benefit,neuroblastoma,below 40%
"[211At] [free astatine-211, astatine-211, reference compound]",potency relative to [211At]PTT in vitro,[4],< 100 times
same,tumor uptake compared to [^211At]PTT,NB-EBC1x tumor; 2-way ANOVA p value 0.0088,lower uptake in tumor
same,thyroid uptake compared to [^211At]PTT,NB-EBC1x tumor; 2-way ANOVA p-value 0.0004,significantly higher uptake in thyroid
same,MTD for a single dose,[5],greater than 50 MBq/kg
